# pKd: −log10 of the molar value.
# What was measured:
# [1] = Volume of distribution in female C57Bl/6 mouse at 1 mg/kg, iv measured upto 8 hrs by LC-MS/MS analysis; format: ADME, organism-based; conditions: in vivo
# [2] = Plasma protein binding in human at 5 uM incubated for 4 hrs by HPLC analysis; format: ADME, cell-free; conditions: read-out: PPB (converted)
# [3] = Half life in female C57Bl/6 mouse at 10 mg/kg, po measured upto 8 hrs by LC-MS/MS analysis; format: ADME, organism-based; conditions: in vivo
# [4] = Solubility of the compound in FaSSIF; format: ADME
# [5] = Plasma clearance in female C57Bl/6 mouse at 1 mg/kg, iv measured upto 8 hrs by LC-MS/MS analysis; format: ADME, organism-based
# [6] = target: T1, von Hippel-Lindau disease tumor suppressor (Homo sapiens, UniProt P40337); assay: biochemical
# T1 sequence (P40337 whole entry): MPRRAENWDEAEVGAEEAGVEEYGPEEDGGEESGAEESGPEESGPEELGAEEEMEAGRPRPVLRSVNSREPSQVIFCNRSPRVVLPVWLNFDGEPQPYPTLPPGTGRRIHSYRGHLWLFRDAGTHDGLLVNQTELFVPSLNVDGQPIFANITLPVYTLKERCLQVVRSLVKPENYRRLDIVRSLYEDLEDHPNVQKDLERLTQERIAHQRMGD
# Description: Binding affinity to VHL (unknown origin)-NanoLuc fusion protein expressed in HEK293 cells assessed as apparent dissociation constant incubated for 30 mins in presence of digitonin by NanoBRET assay
# [7] = Oral bioavailability in female C57Bl/6 mouse at 10 mg/kg measured upto 8 hrs by LC-MS/MS analysis; format: ADME, organism-based; conditions: in vivo
# [8] = Apparent permeability from apical to basolateral side in MDCKI cells at 10 uM measured upto 180 mins by LC-MS/MS analysis; format: ADME, cell-based, Canis lupus familiaris, MDCK1; conditions: dog, MDCK
# [9] = target: T1, von Hippel-Lindau disease tumor suppressor
# [10] = Plasma protein binding in CD-1 mouse at 5 uM incubated for 4 hrs by HPLC analysis; format: ADME, cell-free; conditions: read-out: PPB (converted)
# [11] = Permeability of the compound at pH 7.4 in PBS incubated for 16 hrs by LC-MS/MS based PAMPA assay; format: ADME; conditions: read-out: permeability
# [12] = target: T1, von Hippel-Lindau disease tumor suppressor; assay: Binding affinity to Navi-tagged VHL (unknown origin) assessed as dissociation constant by SPR assay
smiles,measurement,setting,value
CC(=O)N[C@H](C(=O)N1C[C@H](O)C[C@H]1C(=O)N[C@@H](C)c1ccc(-c2scnc2C)cc1)C(C)(C)C,Vd,[1],0.9 L/kg
same,"fraction unbound at 4 h, 5 µM",[2],0.516
same,half-life,[3],3.8 h
same,solubility,[4],> 200 µM
same,clearance,[5],57.7 mL/min/kg
same,pKd,[6],6.92
same,bioavailability,[7],2.7%
same,"Papp A→B at 3 h, 10 µM",[8],0.7 ×10⁻⁶ cm/s
same,pKd,[9],6.74
same,"fraction unbound at 4 h, 5 µM",[10],0.399
CC(=O)N[C@H](C(=O)N1C[C@H](O)C[C@H]1C(=O)N[C@H](Cc1ccc(-c2scnc2C)cc1)C(N)=O)C(C)(C)C,Papp at 16 h,[11],0.19 ×10⁻⁶ cm/s
same,pKd,[6],5.48
same,pKd,[9],< 4.29
NC(=O)[C@@H](Cc1ccc(-c2ccccc2)cc1)NC(=O)[C@@H]1C[C@@H](O)CN1C(=O)[C@@H](n1cc(C2CC2)nn1)C12CC3CC(CC(C3)C1)C2,pKd,[6],7.08
same,pKd,[9],7.17
Cc1ncsc1-c1ccc([C@H](C)NC(=O)[C@@H]2C[C@@H](O)CN2C(=O)[C@@H](n2cc(C3CC3)nn2)C(C)(C)C)cc1,pKd,[6],8.41
same,pKd,[9],8.48
Cc1ncsc1-c1ccc2c(c1)CCCC[C@@H]2NC(=O)[C@@H]1C[C@@H](O)CN1C(=O)[C@@H](n1cc(C2CC2)nn1)C(C)(C)C,Vd,[1],0.7 L/kg
same,"fraction unbound at 4 h, 5 µM",[2],0.003
same,half-life,[3],2.3 h
same,solubility,[4],190 µM
same,clearance,[5],13.9 mL/min/kg
same,pKd,[6],> 8.60
same,bioavailability,[7],46.5%
same,"Papp A→B at 3 h, 10 µM",[8],8.9 ×10⁻⁶ cm/s
same,pKd,[9],> 8.60
same,pKd,[12],9.27
same,"fraction unbound at 4 h, 5 µM",[10],0.003
NC(=O)[C@@H](Cc1ccc(-c2ccccc2)cc1)NC(=O)[C@@H]1C[C@@H](O)CN1C(=O)[C@H](C1CCC1)n1cc(C2CC2)nn1,pKd,[6],7.00
same,pKd,[9],6.96
CC(=O)N[C@H](C(=O)N1C[C@H](O)C[C@H]1C(=O)N[C@H](Cc1ccc(-c2ccccc2)cc1)C(N)=O)C(C)(C)C,Papp at 16 h,[11],0.004 ×10⁻⁶ cm/s
Cc1ncsc1-c1ccc(CNC(=O)[C@@H]2C[C@@H](O)CN2C(=O)[C@@H](n2cc(C3CC3)nn2)C(C)(C)C)cc1,pKd,[6],8.19
same,pKd,[9],8.20
CC(=O)N[C@H](C(=O)N1C[C@H](O)C[C@H]1C(=O)NC(C(N)=O)c1ccc(-c2scnc2C)cc1)C(C)(C)C (mixture of isomers),pKd,[6],6.30
same,pKd,[9],5.29
